What was measured:
Test in all cases: relative viability (nuclei count vs DMSO), 5 days (fraction); higher = more cells survive
[1] = compound: OCc1c[nH]c2ccccc12 [Indole-3-carbinol] + CC(=O)c1c(C)c2cnc(Nc3ccc(N4CCNCC4)cn3)nc2n(C2CCCC2)c1=O [Palbociclib] (partner 0.5 µM)
Method in brief: (§1)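 Relative viability equals treated-well nuclei counts divided by vehicle-well nuclei counts. Counts came from 4× images of lung cancer cell lines grown in 1536-well plates for 5 days after pin-tool dosing on the day after seeding. Dosing used one drug alone or a fixed anchor-drug dose plus five library-drug doses (not always all listed) in √10 steps, and values are medians of duplicate plates.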

[2] = compound: OCc1c[nH]c2ccccc12 [Indole-3-carbinol] + CCNC(=O)c1noc(-c2cc(C(C)C)c(O)cc2O)c1-c1ccc(CN2CCOCC2)cc1 [Luminespib] (partner 0.01 µM)
Method in brief: as §1

[3] = compound: OCc1c[nH]c2ccccc12 [Indole-3-carbinol] + C[C@]1(O)C[C@@H](c2nc(-c3ccc4ccc(-c5ccccc5)nc4c3)c3c(N)nccn32)C1 [Linsitinib] (partner 1 µM)
Method in brief: as §1

[4] = compound: OCc1c[nH]c2ccccc12 [Indole-3-carbinol] + O=C(c1cc(Cc2n[nH]c(=O)c3ccccc23)ccc1F)N1CCN(C(=O)C2CC2)CC1 [Olaparib] (partner 8 µM)
Method in brief: as §1

[5] = compound: OCc1c[nH]c2ccccc12 [Indole-3-carbinol] + NC(=O)Nc1cc(-c2cccc(F)c2)sc1C(=O)N[C@H]1CCCNC1 [AZD7762] (partner 0.2 µM)
Method in brief: as §1

Cell Line | relative viability ([1]; first compound 0.253 µM) | relative viability ([1]; first compound 0.8 µM) | relative viability ([1]; first compound 2.53 µM) | relative viability ([1]; first compound 8 µM) | relative viability ([2]; first compound 0.253 µM) | relative viability ([2]; first compound 0.8 µM) | relative viability ([2]; first compound 2.53 µM) | relative viability ([2]; first compound 8 µM) | relative viability ([3]; first compound 0.253 µM) | relative viability ([3]; first compound 0.8 µM) | relative viability ([3]; first compound 2.53 µM) | relative viability ([3]; first compound 8 µM) | relative viability ([4]; first compound 0.253 µM) | relative viability ([4]; first compound 0.8 µM) | relative viability ([4]; first compound 2.53 µM) | relative viability ([4]; first compound 8 µM) | relative viability ([5]; first compound 0.253 µM) | relative viability ([5]; first compound 0.8 µM) | relative viability ([5]; first compound 2.53 µM) | relative viability ([5]; first compound 8 µM)
NCI-H2009 | 0.213 | 0.188 | 0.169 | 0.226 | 1.05 | 1.08 | 1.05 | 0.893 | 1.24 | 1.26 | 1.17 | 1.13 | 0.674 | 0.768 | 0.7 | 0.649 | – | – | – | –
NCI-H2023 | 0.396 | 0.469 | 0.334 | 0.375 | 0.526 | 0.751 | 0.818 | 0.707 | 0.728 | 0.667 | 0.687 | 0.589 | 0.471 | 0.564 | 0.518 | 0.422 | – | – | – | –
NCI-H2170 | 0.384 | 0.375 | 0.41 | 0.42 | 0.74 | 0.665 | 0.841 | 0.624 | – | – | – | – | 0.633 | 0.617 | 0.597 | 0.586 | 1.01 | 0.898 | 0.89 | 0.894
NCI-H2228 | 0.75 | 0.771 | 0.645 | 0.78 | 0.108 | 0.19 | 0.229 | 0.151 | 0.513 | 0.934 | 0.96 | 0.604 | 0.659 | 0.707 | 0.532 | 1.01 | – | – | – | –
NCI-H2342 | 0.516 | 0.516 | 0.498 | 0.535 | 0.867 | 0.759 | 0.752 | 0.74 | – | – | – | – | 0.452 | 0.447 | 0.508 | 0.512 | 0.576 | 0.455 | 0.456 | 0.453
SK-LU-1 | 0.404 | 0.36 | 0.383 | 0.372 | 0.214 | 0.228 | 0.211 | 0.203 | 1.05 | 1.19 | 1.09 | 1.02 | 0.478 | 0.438 | 0.569 | 0.589 | – | – | – | –
SK-MES-1 | 0.292 | 0.299 | 0.318 | 0.313 | 0.751 | 0.88 | 0.667 | 0.798 | 1.12 | 1.13 | 1.08 | 1.07 | 0.758 | 0.888 | 0.632 | 0.615 | – | – | – | –
SW 900 | 0.557 | 0.501 | 0.589 | 0.527 | 0.186 | 0.155 | 0.169 | 0.166 | – | – | – | – | 0.983 | 1.37 | 0.883 | 0.899 | 0.625 | 0.619 | 0.705 | 0.624
SW 1573 | 0.377 | 0.41 | 0.449 | 0.37 | 0.183 | 0.248 | 0.303 | 0.138 | 0.77 | 0.898 | 0.932 | 0.754 | 0.499 | 0.526 | 0.546 | 0.479 | – | – | – | –
UMC-11 | 0.338 | 0.34 | 0.319 | 0.32 | 1.01 | 0.953 | 1.04 | 1.01 | 0.937 | 0.983 | 0.963 | 0.967 | 0.549 | 0.359 | 0.499 | 0.944 | – | – | – | –
